In the supplement of paper PMC7695840:
Several values for one entry are separate records, joined by “and”; a condition that tells them apart may be missing. Identical values can stand only once. Counter-ions that a name gives are not always drawn.

How the values were obtained:
[1] = test system: Staphylococcus aureus MW2 (mecA+); experiment: IC50 (growth, competition assay); conditions: cefoxitin: subinhibitory
Summary of the method: (§1)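 Signals from DsRed (540/590) and GFP (485/520) were scaled on every plate between single-strain control medians, with No Treatment then set to 0.5. The cells were a 1:1 mix of pre-induced fluorescent S. aureus MW2 strains with and without the resistance gene, grown unshaken for 20 h at 37 °C and 90% humidity in LB in 1536-well plates under a subinhibitory drug dose set each day. Each strain's IC50 was defined as the dose halving the No Treatment signal, or the maximal signal.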

[2] = test system: Staphylococcus aureus MW2 delta-mecA (mecA-); experiment: IC50 (growth, competition assay); conditions: cefoxitin: subinhibitory
Summary of the method: as §1

Compound | IC50 ([1]; fluorescent label: DsRed) | IC50 ([1]; fluorescent label: GFP) | IC50 ([2]; fluorescent label: DsRed) | IC50 ([2]; fluorescent label: GFP)
C[C@@H](O)[C@H]1C(=O)N2C(C(=O)O)=C(S[C@@H]3CN[C@H](CNS(N)(=O)=O)C3)[C@H](C)[C@H]12 [Doripenem Hydrate] | > 150 µM | > 150 µM | 137 µM | 130 µM
CC(C)=CCC[C@]1(C)C=Cc2c(O)c3c(c(CC=C(C)C)c2O1)O[C@]12C(=C[C@@H]4C[C@H]1C(C)(C)O[C@@]2(C/C=C(/C)C(=O)O)C4=O)C3=O [GAMBOGIC ACID] | < 9.85 µM | < 9.85 µM | < 9.85 µM | < 9.85 µM
COc1cc([C@@H]2c3cc4c(cc3[C@@H](O[C@@H]3O[C@@H]5CO[C@@H](c6cccs6)O[C@H]5[C@H](O)[C@H]3O)[C@H]3COC(=O)[C@H]23)OCO4)cc(OC)c1O [VUMON] | < 9.85 µM | < 9.85 µM | < 9.85 µM | < 9.85 µM
CC1(C)S[C@@H]2[C@H](NC(=O)[C@H](NC(=O)N3CCNC3=O)c3ccccc3)C(=O)N2[C@H]1C(=O)O [Azlocillin sodium salt] | < 9.85 µM | 27.7 µM | < 9.85 µM | < 9.85 µM
CCN1CCN(c2cc3c(cc2F)c(=O)c(C(=O)O)cn3C2CC2)CC1 [BAYTRIL] | < 9.85 µM | < 9.85 µM | < 9.85 µM | < 9.85 µM
N=C(N)c1ccc(OCCCCCOc2ccc(C(=N)N)cc2)cc1 [NEBUPENT] | 16.2 µM | 23.6 µM | 14.5 µM | 13.7 µM
COc1ncc(-c2ccc3nccc(-c4ccnnc4)c3c2)cc1NS(=O)(=O)c1ccc(F)cc1F | < 9.85 µM | < 9.85 µM | < 9.85 µM | < 9.85 µM
Cc1cc(-n2c(=O)[nH]c(=O)n(C)c2=O)ccc1Oc1ccc(SC(F)(F)F)cc1 [Toltrazuril] | 34.6 µM | 71.9 µM | 24.3 µM | 27.3 µM
C=CCCCCCCCCCCCc1ccco1 [AVOCADENOFURAN] | 48.4 µM | 80.9 µM | 16.1 µM | < 9.85 µM
O=C1NC(=O)[C@@H](c2cn3c4c(cccc24)CCC3)[C@@H]1c1c[nH]c2ccccc12 [ARQ 197 (Tivantinib)] | 107 µM | 112 µM | 32.2 µM | 57.3 µM
COc1cc(Cc2cnc(N)nc2N)cc(OC)c1OC [Trimethoprim] | 12.4 µM and < 9.85 µM | 14.6 µM and 14.2 µM | < 9.85 µM | < 9.85 µM
N[C@@H](Cc1cc(I)c(Oc2cc(I)c(O)c(I)c2)c(I)c1)C(=O)O [L-Thyroxine] | < 9.85 µM | < 9.85 µM | < 9.85 µM | < 9.85 µM
CO[C@@]1(NC(=O)C(C(=O)O)c2ccc(O)cc2)C(=O)N2C(C(=O)O)=C(CSc3nnnn3C)CO[C@@H]21 (stereo not given in full) [MOXAM] | 26.2 µM | 18.5 µM | < 9.85 µM | < 9.85 µM
Nc1ccc(/N=N/c2ccccc2)c(N)n1 [PYRIDIUM] | > 150 µM | > 150 µM | > 150 µM | > 150 µM
Cc1nc2sccn2c(=O)c1CCN1CCC(=C(c2ccc(F)cc2)c2ccc(F)cc2)CC1 [Ritanserin] | 57.5 µM | 56.9 µM | 17.3 µM | 29 µM
O=C1C(Cl)=C(NCCN2CCOCC2)C(=O)c2ncccc21 | 33 µM | 91.7 µM | 28.8 µM | < 9.85 µM
CO[C@H]1/C=C/O[C@@]2(C)Oc3c(C)c(O)c4c(O)c(c(/C=N/N5CCN(C6CCCC6)CC5)c(O)c4c3C2=O)NC(=O)/C(C)=C\C=C\[C@H](C)[C@H](O)[C@@H](C)[C@@H](O)[C@@H](C)[C@H](OC(C)=O)[C@@H]1C [Rifapentine] | < 0.498 µM | < 0.498 µM | < 0.498 µM | < 0.498 µM
COc1c(N2CCNC(C)C2)c(F)cc2c(=O)c(C(=O)O)cn(C3CC3)c12 (stereo not given) [TEQUIN] | < 9.85 µM | < 9.85 µM | < 9.85 µM | < 9.85 µM
NCC(=O)Nc1ccc(-n2nc(C(F)(F)F)cc2-c2ccc3c(ccc4ccccc43)c2)cc1 | 21.6 µM and 20.8 µM | 29.3 µM and 14.7 µM | 8.83 µM and 14.5 µM | 3.48 µM and 14.7 µM
Cc1cc2c(C(C)C)c(O)c(O)c(C=O)c2c(O)c1-c1c(C)cc2c(C(C)C)c(O)c(O)c(C=O)c2c1O [Gossypol] | < 9.85 µM | < 9.85 µM | < 9.85 µM | < 9.85 µM
CC(=O)O[C@H]1C[C@@]2(C)[C@@H](C[C@@H](O)[C@H]3[C@@]4(C)CC[C@@H](O)[C@@H](C)[C@@H]4CC[C@@]32C)/C1=C(\CCC=C(C)C)C(=O)O [FUCIDINE] | < 9.85 µM | < 9.85 µM | < 9.85 µM | < 9.85 µM
O=C(Nc1ccc(C(=O)O)c(O)c1)c1ccccc1 [THERAPAS] | 29.8 µM | 29.3 µM | 17.6 µM | 11.8 µM
CN1C[C@@H]2C[C@H]1CN2c1cc2c(cc1F)c(=O)c(C(=O)O)cn2C1CC1 [Danofloxacin Mesylate] | < 9.85 µM | < 9.85 µM | < 9.85 µM | < 9.85 µM
CCC[C@H](NC(=O)/C(C#N)=C/c1cccc(Br)n1)c1ccccc1 [WP1130] | 13.7 µM | 27.5 µM | 2.28 µM | 0.904 µM
FC(F)(F)c1ccc(Nc2nc3ccc(Oc4ccnc(-c5ncc(C(F)(F)F)[nH]5)c4)cc3[nH]2)cc1 [Raf265 derivative] | 19.6 µM | 23.4 µM | < 9.85 µM | < 9.85 µM
CN1CCN(CCCN2c3ccccc3Sc3ccc(C(F)(F)F)cc32)CC1 [Trifluoperazine 2HCl] | 56.9 µM | 57.1 µM | 16.5 µM | 14.5 µM
O=c1[nH]cc(F)c(=O)[nH]1 [5-Fluorouracil] | < 9.85 µM | < 9.85 µM | < 9.85 µM | < 9.85 µM
O=C(Nc1cc(C(F)(F)F)cc(C(F)(F)F)c1)c1cc(Cl)ccc1O [IMD0354] | < 9.85 µM | < 9.85 µM | < 9.85 µM | < 9.85 µM
CCN1C[C@H](C)n2c(c(O)c3c(=O)n(Cc4ccc(F)c(Cl)c4)nc(C(=O)NC)c32)C1=O [MK-2048] | 80.3 µM | 64 µM | 39.3 µM | 40.9 µM
N[C@@H]1CN(c2c(F)cc3c(=O)c(C(=O)O)cn([C@@H]4C[C@@H]4F)c3c2Cl)CC12CC2 [Sitafloxacin hydrate] | < 0.498 µM | < 0.498 µM | < 0.498 µM | < 0.498 µM
